# Measurements from the supplement of paper PMC10307832.
# Key:
# Experiment in all cases: relative viability (nuclei count vs DMSO), 5 days (fraction); higher = more cells survive
# [1] = compound: COc1cc2nc(N3CCCN(C)CC3)nc(NC3CCN(Cc4ccccc4)CC3)c2cc1OC
# Procedure, shortened: (§1)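 Following overnight incubation at 37 °C, lung cancer cell lines in 1536-well plates were pinned with five library-drug doses (not always all listed) in √10 steps on vehicle-anchored plates. The cells then spent 5 days without medium change before a combined fix, permeabilisation and Hoechst stain, 4× imaging and MetaXpress nuclear counts. Viability is the treated-to-vehicle ratio of nuclei, taken as the median across plates. Only plates with control CV below 25% and at least one doubling passed.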
# AZD6482 = compound: Cc1cc([C@@H](C)Nc2ccccc2C(=O)O)c2nc(N3CCOCC3)cc(=O)n2c1 [AZD6482]
# Procedure, shortened: as §1
# [2] = compound: COc1cc2nc(N3CCCN(C)CC3)nc(NC3CCN(Cc4ccccc4)CC3)c2cc1OC + CC(=O)Nc1cccc(-n2c(=O)n(C3CC3)c(=O)c3c(Nc4ccc(I)cc4F)n(C)c(=O)c(C)c32)c1 [Trametinib] (partner 0.02 µM)
# Procedure, shortened: (§2)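 Values are medians from duplicate plates. Each reflects relative viability, defined as the nuclei count of treated wells over that of vehicle wells. Lung cancer cell lines in 1536-well plates were pin-tool dosed one day after seeding with one drug alone or with a fixed anchor-drug dose plus five library-drug doses (not always all listed) in √10 steps, then fixed, stained and imaged at 4× after 5 days.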
# AZD6482 + Navitoclax = compound: Cc1cc([C@@H](C)Nc2ccccc2C(=O)O)c2nc(N3CCOCC3)cc(=O)n2c1 [AZD6482] + CC1(C)CCC(c2ccc(Cl)cc2)=C(CN2CCN(c3ccc(C(=O)NS(=O)(=O)c4ccc(N[C@H](CCN5CCOCC5)CSc5ccccc5)c(S(=O)(=O)C(F)(F)F)c4)cc3)CC2)C1 [Navitoclax] (partner 0.5 µM)
# Procedure, shortened: as §2
Cell Line,relative viability ([1]; 0.2 µM),relative viability ([1]; 0.6325 µM),relative viability ([1]; 2 µM),relative viability ([1]; 6.325 µM),relative viability (AZD6482; 0.08 µM),relative viability (AZD6482; 0.253 µM),relative viability (AZD6482; 0.8 µM),relative viability (AZD6482; 2.53 µM),relative viability (AZD6482; 8 µM),relative viability ([2]; first compound 0.2 µM),relative viability ([2]; first compound 0.6325 µM),relative viability ([2]; first compound 2 µM),relative viability ([2]; first compound 6.325 µM),relative viability (AZD6482 + Navitoclax; first compound 0.08 µM),relative viability (AZD6482 + Navitoclax; first compound 0.253 µM),relative viability (AZD6482 + Navitoclax; first compound 0.8 µM),relative viability (AZD6482 + Navitoclax; first compound 2.53 µM),relative viability (AZD6482 + Navitoclax; first compound 8 µM)
NCI-H1944,1.01,1,0.745,0.902,0.92,0.836,0.946,0.685,0.735,0.437,0.423,0.379,0.414,1.02,0.953,1.03,0.887,0.821
LU99A,0.868,0.838,1.03,0.885,0.915,0.894,1.04,0.797,0.948,0.531,0.47,0.541,0.526,0.753,0.757,0.81,0.515,0.529
SW 1573,0.906,0.983,1.02,0.651,0.916,0.908,0.818,0.677,0.674,0.446,0.518,0.572,0.368,0.887,0.86,0.941,0.56,0.653
NCI-H2347,1.02,0.975,1.04,1,0.627,0.785,0.805,0.617,0.664,0.275,0.299,0.271,0.377,–,0.423,0.445,0.283,0.235
NCI-H2009,1.04,0.94,1.17,0.932,1.02,1.04,1.06,0.59,0.74,0.277,0.305,0.323,0.289,1.11,1.14,1.23,0.757,0.96
HCC-15,0.985,0.977,1.06,0.862,1.03,0.962,1.04,0.857,0.945,0.44,0.386,0.373,0.379,0.666,0.616,0.626,0.515,0.523
HCC-44,0.98,0.996,0.998,0.981,0.873,0.971,1,1.05,1.03,1.04,1.13,1.1,1.08,0.758,0.964,0.965,0.874,0.459
COR-L23,0.942,1.03,1.06,1.03,0.808,1.02,1.08,0.845,0.834,0.635,0.466,0.748,0.638,0.711,1.02,1.23,0.756,0.857
HCC-78,0.937,1.04,1.08,1.02,0.749,0.622,0.632,0.372,0.405,0.734,0.695,0.723,0.685,0.663,0.438,0.433,0.203,0.306
NCI-H727,0.834,0.867,0.826,0.783,0.877,0.789,0.945,0.58,0.833,0.425,0.368,0.373,0.361,0.469,0.455,0.421,–,0.235
NCI-H2087,0.921,0.995,1.03,1.09,0.841,0.996,1.35,0.555,1.08,0.244,0.215,0.144,0.206,0.847,0.909,0.966,0.818,0.895
BEN,1.03,1.06,1.19,1.04,0.889,0.791,1.05,0.803,0.853,1.06,1.04,1.02,1.1,0.058,0.0744,0.0638,0.0645,0.178
EKVX,0.953,1.04,0.962,0.954,0.813,0.819,0.832,0.549,0.654,0.316,0.393,0.319,0.278,0.817,0.868,0.786,0.535,0.57
LXF-289,0.99,0.993,1.04,1,1.01,1.07,1.06,0.93,0.973,0.651,0.701,0.634,0.625,0.974,0.955,0.997,0.954,0.854
NCI-H1650,0.863,1.03,0.924,0.835,0.839,0.854,0.778,0.719,0.862,0.576,0.601,0.499,0.511,0.873,–,0.747,0.702,0.819
NCI-H2085,1.01,1.02,0.992,0.965,0.801,0.675,0.588,0.4,0.384,0.504,0.504,0.612,0.525,0.803,0.585,0.538,0.395,0.462
NCI-H1793,0.86,0.959,0.863,0.819,0.774,0.5,0.756,0.386,0.499,0.374,0.39,0.412,0.373,0.29,0.23,0.251,–,0.312
LC-2-ad,0.929,1.05,1.09,0.955,0.982,0.891,1.07,0.658,0.693,0.934,0.871,0.942,0.941,0.407,0.312,0.394,0.234,0.259

Cell Line,relative viability ([1]; 0.2 µM),relative viability ([1]; 0.6325 µM),relative viability ([1]; 2 µM),relative viability ([1]; 6.325 µM),relative viability (AZD6482; 0.08 µM),relative viability (AZD6482; 0.253 µM),relative viability (AZD6482; 0.8 µM),relative viability (AZD6482; 2.53 µM),relative viability (AZD6482; 8 µM),relative viability ([2]; first compound 0.2 µM),relative viability ([2]; first compound 0.6325 µM),relative viability ([2]; first compound 2 µM),relative viability ([2]; first compound 6.325 µM),relative viability (AZD6482 + Navitoclax; first compound 0.08 µM),relative viability (AZD6482 + Navitoclax; first compound 0.253 µM),relative viability (AZD6482 + Navitoclax; first compound 0.8 µM),relative viability (AZD6482 + Navitoclax; first compound 2.53 µM),relative viability (AZD6482 + Navitoclax; first compound 8 µM)
COR-L 105,0.868,1.08,0.793,0.621,0.825,0.904,0.874,0.577,0.801,0.429,0.515,0.403,0.439,0.78,0.648,0.747,0.521,0.633
NCI-H1355,0.891,0.992,1,0.95,0.872,0.852,1.01,0.733,0.777,0.419,0.458,0.433,0.385,0.551,0.697,0.711,0.588,0.61
H3255,0.915,0.986,1.1,0.961,0.996,0.918,0.979,0.688,0.835,0.593,0.607,0.554,0.537,0.501,0.523,0.352,0.314,0.243
NCI-H1993,0.879,1.18,0.912,0.905,0.68,0.792,0.631,0.557,0.676,0.497,0.485,0.414,0.589,0.779,0.784,–,–,0.654
NCI-H1734,0.967,0.876,0.889,0.855,0.905,0.907,1.04,0.611,0.795,0.657,0.697,0.738,0.552,0.73,0.604,0.726,0.449,0.776
HOP-62,0.965,0.954,1.1,0.96,1.11,1.1,1.09,0.833,1.01,0.396,0.434,0.459,0.361,1.19,1.17,1.28,0.791,1.12
LOU-NH91,0.96,1.13,0.838,0.983,0.852,0.918,0.959,0.61,0.744,0.801,0.778,0.781,0.811,0.579,0.651,0.659,0.441,0.518
ChaGo-K-1,0.944,0.985,1.03,0.94,1.07,0.839,1.05,0.91,0.983,0.919,0.882,0.932,0.887,1.09,–,1.18,0.986,1.1
NCI-H2228,0.9,1.12,1.07,0.753,0.745,0.965,1.17,0.775,0.901,0.561,0.565,0.403,0.395,0.738,0.963,0.803,0.634,0.616
PC-14,0.97,1.05,0.977,0.475,0.953,0.972,1.12,0.849,0.979,0.707,0.648,0.806,0.0693,0.926,1,1.04,0.879,0.96
NCI-H1437,0.983,0.992,1.06,0.99,1.04,0.972,1.03,0.847,0.726,0.492,0.515,0.527,0.325,1.06,1.13,1.12,0.816,0.692
NCI-H460,0.997,1.01,0.992,0.978,0.963,0.969,1.01,0.846,0.822,0.13,0.16,0.107,0.0898,0.968,1.08,1.07,0.859,0.694
NCI-H1666,0.948,1.05,0.947,0.903,0.842,0.95,0.984,0.853,1.05,0.821,0.781,0.774,0.799,0.794,0.846,0.706,0.749,0.528
NCI-H1651,0.974,0.983,1.02,1.03,0.897,0.932,0.93,0.814,0.815,0.828,0.815,0.888,0.848,0.883,0.917,0.881,0.676,0.636
NCI-H1755,0.974,0.957,0.939,0.935,0.957,0.953,1,0.756,0.785,0.797,0.75,0.713,0.746,0.833,0.737,0.682,0.43,0.498
HARA,0.895,1.13,1.08,0.919,0.844,0.978,1.13,0.782,0.875,0.686,0.916,0.522,0.746,1.11,1.16,1.13,–,1.16
NCI-H596,0.969,1.19,0.964,0.836,0.844,0.91,0.92,0.909,0.929,0.748,0.765,0.822,0.655,0.596,0.827,0.925,0.912,0.836
